In one experiment the test system is ventral pallidal neurons. The experiment in a line: Electrophysiology of ventral pallidal neurons, i.v. METH dose-response in chloral hydrate-anesthetized rats. The experiment is classed as in vivo, rat. As for the experimental part:
Based on the biochemical results and because the ventral pallidum contains one of the highest concentrations of 5-HT in the brain, electrophysiological evaluations of this region in rats behaviorally sensitized to METH were conducted (with a 5-day once daily treatment of 2.5 mg/kg). The acute challenge was intravenously administered METH (via a tail vein cannula) as previously used by T. C. Napier's lab ^e.g., [34] where the drug is given in a cumulative dosing fashion such that each dose, administered in 2 min-intervals, essentially doubles the previous dose. METH was tested using a range of 0.06-4.0 mg/kg in saline vehicle. […] Moreover, this approach establishes if systemic administration of METH, in doses that include those producing behavioral sensitization, are sufficient promote sensitized cellular responding and thus allows for direct comparisons of cellular responding to behavioral outcomes. After a 3-day withdrawal, the ability of intravenously administered METH or 1-(2,5-dimethoxy-4-iodophenyl)-2-aminopropane (DOI) to increase ventral pallidal cell firing was enhanced in chloral hydrate-anesthetized rats, as shown by a leftward shift in the dose-response curve with a […] and an increase in response efficacy for both agonists (FIG. 16) and this occurred without any changes in the portion of neurons showing a rate increase or decrease to the acute METH challenge.
Electrophysiological assessment of the ventral pallidum was also conducted 30 days after repeated METH. […] For each experiment, an i.v. METH dose-response curve (METH was tested using a range of 0.06-2.0 mg/kg in saline vehicle) was generated for one ventral pallidal neuron per rat at 30 days withdrawal from repeated METH. Based on the analysis of curves where there was an excitatory effect of i.v. METH on ventral pallidal neurons (171 animals), there was a diminished excitatory effect of i.v. METH in the ventral pallidum of rats that were pretreated with METH only. This is illustrated by both the curves and corresponding Emax data in FIG. 17. This decrease only at long-term withdrawal mirrors the reduction seen in pallidal pCREB only after 14, but not at 3 day withdrawal from repeated METH (see Example III).

A further experiment has as its target α2. Particulars: read-out: receptor affinity (Ki) α2; cited from earlier work.
For a further experiment, the target named is α1. Particulars: read-out: receptor affinity (Ki) α1; cited from earlier work.
The next experiment deals with D2 (Homo sapiens, UniProt P14416). The note with it: read-out: receptor affinity (Ki) D2; cited from earlier work.
A further experiment concerns the target T1, 5-HT2C (Homo sapiens, UniProt P28335).
T1 sequence (P28335 33-458): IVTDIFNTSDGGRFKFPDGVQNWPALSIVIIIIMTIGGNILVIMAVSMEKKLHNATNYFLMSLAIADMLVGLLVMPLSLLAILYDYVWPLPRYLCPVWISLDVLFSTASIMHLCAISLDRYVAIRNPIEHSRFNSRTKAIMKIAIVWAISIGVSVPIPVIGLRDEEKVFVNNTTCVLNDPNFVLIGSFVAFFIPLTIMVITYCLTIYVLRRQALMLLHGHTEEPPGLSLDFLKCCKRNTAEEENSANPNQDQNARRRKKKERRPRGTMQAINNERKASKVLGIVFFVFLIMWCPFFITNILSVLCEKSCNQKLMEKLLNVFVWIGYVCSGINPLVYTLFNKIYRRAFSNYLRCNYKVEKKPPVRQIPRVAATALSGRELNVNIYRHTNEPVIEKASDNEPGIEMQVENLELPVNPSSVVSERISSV
The note with it: read-out: receptor affinity (Ki) 5-HT2C; cited from earlier work.

The target in another experiment is T2, 5-HT3 (Homo sapiens, UniProt P46098).
T2 sequence (P46098 24-478): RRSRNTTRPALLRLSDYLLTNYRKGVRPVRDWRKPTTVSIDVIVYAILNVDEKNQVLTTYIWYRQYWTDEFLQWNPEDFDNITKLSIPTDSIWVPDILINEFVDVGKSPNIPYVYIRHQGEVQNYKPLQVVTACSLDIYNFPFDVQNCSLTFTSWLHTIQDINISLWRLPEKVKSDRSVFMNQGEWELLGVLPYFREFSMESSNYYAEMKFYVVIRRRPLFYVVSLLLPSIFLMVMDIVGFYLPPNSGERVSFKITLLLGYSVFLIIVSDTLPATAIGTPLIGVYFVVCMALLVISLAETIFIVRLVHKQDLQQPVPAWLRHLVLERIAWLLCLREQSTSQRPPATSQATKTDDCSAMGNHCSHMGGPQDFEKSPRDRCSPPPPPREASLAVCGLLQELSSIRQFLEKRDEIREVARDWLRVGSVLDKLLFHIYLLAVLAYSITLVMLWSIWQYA
The note with it: read-out: receptor affinity (Ki) 5-HT3; cited from earlier work.

A further experiment deals with METH-sensitized rats. The experiment in a line: Reversal of METH-induced behavioral sensitization by 5-HT2A/2C antagonists (motor activity after acute METH challenge). The class given is in vivo, rat. The source says:
Automation of observational evaluations was accomplished using computerized small animal monitors (AccuScan Instr. Inc., Columbus, Ohio). […] One feature of drug-induced behavioral sensitization is heterogeneity of motor responses and the AccuScan monitors quantify numerous behavioral indices. This is a critical point for the motor profile is exquisitely related to METH dose, the drug history of the rat and observation time. After 3- or 31-days of withdrawal from repeated METH injections, rats were allowed to achieve baseline motor activity with a 30 min habituation period, challenged with 1 mg/kg sc METH and monitored for 90 min.
Multiple 5-HT2A/2C antagonists with differing pharmacological profiles were tested for their ability to ameliorate METH-induced behavioral sensitization when administered after sensitization has developed. […] The doses were selected based on the antagonists' ability to block 5-HT2A- and 5-HT2C-mediated activity and their pharmacokinetic profiles.

Chain of D2 (P14416 whole entry): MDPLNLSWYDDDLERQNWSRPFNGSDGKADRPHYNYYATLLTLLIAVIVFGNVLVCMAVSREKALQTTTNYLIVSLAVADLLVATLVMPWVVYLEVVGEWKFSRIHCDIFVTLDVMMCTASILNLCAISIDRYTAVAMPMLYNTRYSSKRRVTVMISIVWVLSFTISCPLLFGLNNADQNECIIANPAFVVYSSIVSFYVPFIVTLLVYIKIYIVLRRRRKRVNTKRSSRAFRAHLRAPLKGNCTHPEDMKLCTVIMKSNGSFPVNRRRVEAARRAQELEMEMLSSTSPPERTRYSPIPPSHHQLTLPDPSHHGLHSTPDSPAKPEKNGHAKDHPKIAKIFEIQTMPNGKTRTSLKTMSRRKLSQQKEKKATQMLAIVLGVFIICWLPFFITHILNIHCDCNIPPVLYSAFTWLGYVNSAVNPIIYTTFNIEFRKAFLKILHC

What is called Ki is the dissociation constant of the complex between target and ligand, obtained from inhibition or displacement. `CN1CCN2c3ncccc3Cc3ccccc3[C@@H]2C1` (racemic) [mirtazapine, 1,2,3,4,10,14b-hexahydro-2-methyl-pyrazino[2,1-a]pyrido[2,3-c]benzazepine]: the “Emax of Firing Rate Increases of Acute Meth” value was 251% ± 21% (n = 5) in the experiment with ventral pallidal neurons (METH days 1-5, then antagonist, tested 31 days after last METH) and 240% ± 44% (n = 5) with ventral pallidal neurons (Sal days 1-5, then antagonist, tested 31 days after last injection). In the experiment on ventral pallidal neurons (after 30 days withdrawal), the “effect of repeated METH on response of ventral pallidal neurons to acute METH challenge” value is on record as “reversal”. In addition, the Ki is 65 nM at α2; 500 nM on α1; above 1000 nM at D2; 12 nM at 5-HT2C; 8 nM on 5-HT3. Besides, the “vertical movement suppression seen in METH-pretreated rats” value with METH-sensitized rats (mirtazapine 5 mg/kg x 15 days) is recorded as “attenuation of the vertical movement suppression”. In addition, the “decreases in total distance traveled and time spent ambulating induced by METH pretreatments” value in the experiment on METH-sensitized rats (mirtazapine 5 mg/kg x 15 days, data not shown) was “attenuated the decreases”. For the same compound, the horizontal activity result in the experiment with METH-sensitized rats (mirtazapine 5 mg/kg x 15 days, first 60 min after acute METH challenge) is “slight attenuation”. For the same compound, the “potentiation of METH-induced sensitization for any assessed behavior” value in the experiment on METH-sensitized rats (mirtazapine daily 5 mg/kg x 15 days) is reported as “did not potentiate”. The “overall attenuation of METH-sensitized responses” value with METH-sensitized rats (mirtazapine daily 5 mg/kg x 15 days, M-F) is listed as “greatest overall attenuation”. Besides, the “mirtazapine+saline group vs saline+saline pretreated rats” value in the experiment with METH-sensitized rats (mirtazapine daily 5 mg/kg x 15 days, saline-pretreated) is on record as “did not differ”.
